Reference: patent US12258339B2, “Macrocyclic complexes of alpha-emitting radionuclides and their use in targeted radiotherapy of cancer” (Cornell University, priority 2018, dated 2025)

Experiment: In vivo biodistribution of ^225Ac complexes of macropa and DOTA and of ^225Ac(NO3)3 in mice
Set-up: species or system C57BL/6 mice
Method: In Vivo Biodistribution of ^225Ac Complexes of Macropa and DOTA. All experiments were approved by the Institutional Animal Care Committee (IACC) of the University of British Columbia and were performed in accordance with the Canadian Council on Animal Care Guidelines. A total of 9 female C57BL/6 mice (6-8 weeks old, 20-25 g) were used for the biodistribution study of each radiometal complex, n=3 for each time point.
Macropa (100 μL of a 1 mg/mL solution in NH4OAc) was diluted with 387 μL of NH4OAc (1 M, pH 7), and an aliquot (203 μL) of ^225Ac(NO3)3 (˜157 kBq) was then added; the pH of this solution was adjusted to 6.5-7 by the addition of 1 M NaOH (210 μL, trace metal grade). After 5 min at ambient temperature, the reaction solution was analyzed by TLC (0.4 M pH 4 sodium citrate as the eluent), which confirmed >95% radiochemical yield. The reaction was allowed to proceed overnight, and the radiochemical yield was again confirmed to be >95% the following morning. At this time, mice were anesthetized by 2% isoflurane, and approximately 100 μL (10-15 kBq) of the [^225Ac(macropa)]^+ complex were injected into the tail vein of each mouse. After injection, mice were allowed to recover and roam freely in their cages, and were euthanized by CO2 inhalation at 15 min, 1 h, or 5 h (n=3 at each time point) post-injection. Blood was collected by cardiac puncture and placed into an appropriate test tube for scintillation counting. Tissues collected included heart, liver, kidneys, lungs, small intestine, large intestine, brain, bladder, spleen, stomach, pancreas, bone, thyroid, tail, urine, and feces. Tissues were weighed and then counted with a calibrated gamma counter (Packard, Cobra II model 5002) using three energy windows: 60-120 keV (window A), 180-260 keV (window B), and 400-480 keV (window C). Counting was performed both immediately after sacrifice and after 7 days; counts were decay corrected from the time of injection and then converted to the percentage of injected dose (% ID) per gram of tissue (% ID/g). […]
The biodistribution studies of [^225Ac(DOTA)]^− and ^225Ac(NO3)3 were carried out as described above for [^225Ac(macropa)]^+, with the following modifications. [^225Ac(DOTA)^− was prepared by adding ^225Ac(NO3)3 (338 μL, 1.1 MBq) to a solution of DOTA (100 μg, 20 mg/mL in H2O) in NH4OAc (467 μL, 0.15 M, pH 7). The pH of the solution was adjusted to 7 using NH4OAc (150 μL, 1 M, pH 7) and the solution was heated at 85° C. for 45 min. RCY>99% was confirmed by TLC as described above. [^225Ac(DOTA)]^− was diluted with saline to a final concentration of 0.05 MBq/100 μL, and 100 μL were injected into each mouse. ^225Ac(NO3)3 (˜58 μL, 0.4 MBq) was diluted and injected in the same manner as [^225Ac(DOTA)]^−. One mouse that was to be euthanized at the 5 h time point in the [^225Ac(DOTA)]^− study died shortly after injection. In the same manner, one mouse that was to be euthanized at the 1 h time point in the ^225Ac(NO3)3 study died.
The in vivo stability [^225Ac(macropa)]^+ was examined by comparing its biodistribution to those of ^225Ac(NO3)3 and [^225Ac(DOTA)]^−. C57BL/6 mice were injected via tail vein with 10-50 kBq of each radiometal complex and were sacrificed after 15 min, 1 h, or 5 h. The amount of ^225Ac retained in each organ was quantified by gamma counting and reported as the percent of injected dose per gram of tissue (% ID/g). The results of these studies are compiled in Tables 1-3. Inadequate stability of an ^225Ac complex leading to the loss of radioisotope in vivo is manifested by the accumulation of ^225Ac in the liver, spleen, and bone of mice.^[11,12,32] […] The biodistribution profile of [^225Ac(macropa)]^+ (FIG. 3B) differs markedly from that of ^225Ac(NO3)3. […] Its biodistribution profile was similar to that of [^225Ac(DOTA)]^− (FIG. 3C), which has been previously shown to retain ^225Ac in vivo.^[7]

[1] = 15 min after i.v. injection, energy window A (60-120 keV)
[2] = 15 min after i.v. injection, energy window C (400-480 keV)
[3] = 1 h after i.v. injection, energy window A (60-120 keV)
[4] = 1 h after i.v. injection, energy window B (180-260 keV)
[5] = 1 h after i.v. injection, energy window C (400-480 keV)
[6] = 5 h after i.v. injection, energy window A (60-120 keV)
[7] = 5 h after i.v. injection, energy window B (180-260 keV)
[8] = 5 h after i.v. injection, energy window C (400-480 keV)

SMILES: O=C([O-])c1cccc(CN2CCOCCOCCN(Cc3cccc(C(=O)[O-])n3)CCOCCOCC2)n1.[225Ac+3] [[^225Ac(macropa)]^+]
- Organ distribution: brain [1]: 0.26 % ID/g
- Organ distribution: feces [1]: 0.91 % ID/g
- Organ distribution: large intestines [1]: 2.40 % ID/g
- Organ distribution: brain (15 min after i.v. injection, energy window B (180-260 keV)): 0.23 % ID/g
- Organ distribution: brain [2]: 0.17 % ID/g
- Organ distribution: pancreas [2]: 3.00 % ID/g
- Organ distribution: blood [3]: 0.40 % ID/g
- Organ distribution: bone (femur + joint) [3]: 0.31 % ID/g
- Organ distribution: brain [3]: 0.12 % ID/g
- Organ distribution: feces [3]: 0.28 % ID/g
- Organ distribution: heart [3]: 0.31 % ID/g
- Organ distribution: large intestines [3]: 0.36 % ID/g
- Organ distribution: liver [3]: 0.75 % ID/g
- Organ distribution: lungs [3]: 0.51 % ID/g
- Organ distribution: pancreas [3]: 0.19 % ID/g
- Organ distribution: small intestines [3]: 1.10 % ID/g
- Organ distribution: spleen [3]: 0.51 % ID/g
- Organ distribution: stomach [3]: 0.41 % ID/g
- Organ distribution: blood [4]: 0.39 % ID/g
- Organ distribution: bone (femur + joint) [4]: 0.17 % ID/g
- Organ distribution: brain [4]: 0.12 % ID/g
- Organ distribution: feces [4]: 0.27 % ID/g
- Organ distribution: heart [4]: 0.20 % ID/g
- Organ distribution: large intestines [4]: 0.22 % ID/g
- Organ distribution: liver [4]: 0.70 % ID/g
- Organ distribution: lungs [4]: 0.54 % ID/g
- Organ distribution: pancreas [4]: 0.12 % ID/g
- Organ distribution: small intestines [4]: 0.94 % ID/g
- Organ distribution: spleen [4]: 0.23 % ID/g
- Organ distribution: stomach [4]: 0.33 % ID/g
- Organ distribution: thyroids [4]: 0.10 % ID/g
- Organ distribution: bladder [5]: 9.00 % ID/g
- Organ distribution: blood [5]: 0.54 % ID/g
- Organ distribution: bone (femur + joint) [5]: 0.70 % ID/g
- Organ distribution: brain [5]: 0.23 % ID/g
- Organ distribution: feces [5]: 0.69 % ID/g
- Organ distribution: heart [5]: 0.23 % ID/g
- Organ distribution: large intestines [5]: 0.79 % ID/g
- Organ distribution: lungs [5]: 0.84 % ID/g
- Organ distribution: pancreas [5]: 0.43 % ID/g
- Organ distribution: spleen [5]: 0.48 % ID/g
- Organ distribution: stomach [5]: 0.17 % ID/g
- Organ distribution: blood [6]: 0.01 % ID/g
- Organ distribution: bone (femur + joint) [6]: 0.05 % ID/g
- Organ distribution: brain [6]: 0.02 % ID/g
- Organ distribution: heart [6]: 0.10 % ID/g
- Organ distribution: kidneys [6]: 0.74 % ID/g
- Organ distribution: large intestines [6]: 0.49 % ID/g
- Organ distribution: liver [6]: 0.39 % ID/g
- Organ distribution: lungs [6]: 0.01 % ID/g
- Organ distribution: pancreas [6]: 0.10 % ID/g
- Organ distribution: small intestines [6]: 0.29 % ID/g
- Organ distribution: spleen [6]: 0.11 % ID/g
- Organ distribution: stomach [6]: 0.01 % ID/g
- Organ distribution: tail [6]: 0.14 % ID/g
- Organ distribution: thyroids [6]: 0.10 % ID/g
- Organ distribution: blood [7]: 0.00 % ID/g
- Organ distribution: bone (femur + joint) [7]: 0.02 % ID/g
- Organ distribution: brain [7]: −0.01 % ID/g
- Organ distribution: heart [7]: −0.04 % ID/g
- Organ distribution: kidneys [7]: 0.78 % ID/g
- Organ distribution: large intestines [7]: 0.45 % ID/g
- Organ distribution: liver [7]: 0.36 % ID/g
- Organ distribution: lungs [7]: −0.05 % ID/g
- Organ distribution: pancreas [7]: −0.12 % ID/g
- Organ distribution: small intestines [7]: 0.29 % ID/g
- Organ distribution: spleen [7]: 0.09 % ID/g
- Organ distribution: stomach [7]: 0.04 % ID/g
- Organ distribution: tail [7]: 0.13 % ID/g
- Organ distribution: blood [8]: 0.04 % ID/g
- Organ distribution: bone (femur + joint) [8]: 0.08 % ID/g
- Organ distribution: brain [8]: −0.01 % ID/g
- Organ distribution: heart [8]: 0.28 % ID/g
- Organ distribution: large intestines [8]: 0.68 % ID/g
- Organ distribution: liver [8]: 0.55 % ID/g
- Organ distribution: lungs [8]: 0.15 % ID/g
- Organ distribution: pancreas [8]: 0.13 % ID/g
- Organ distribution: small intestines [8]: 0.42 % ID/g
- Organ distribution: spleen [8]: 0.43 % ID/g
- Organ distribution: stomach [8]: 0.13 % ID/g
- Organ distribution: tail [8]: 0.28 % ID/g
- blood clearance and excretion (in words) (i.v. injection, up to 5 h): rapidly cleared from mice
- organ accumulation (in words) (i.v. injection, up to 5 h): did not accumulate in any organ
